In brackets after ≈: the same amount, converted by molar mass. *1 amine or outer side, *2 acyl side, *3 side chain or, on linkers, in order; H or OH if unused. Where a SMILES comes first, the peptide text is derived from it. [ ]: non-standard residue; d: D form. The star is where a group is joined. X2 = CCC(=O)C[C@@H](O)C[C@@H](C)C[C@H](N[*:1])C(=O)[*:2]; X1 = CCC(=O)/C=C/C[C@@H](C)C[C@H](N[*:1])C(=O)[*:2]; Alaψ(CH2NMeCH2CH2OH) = C[C@@H](CN(C)CCO)N*; Decanoyl(2R-Me) = CCCCCCCC[C@@H](C)C(=O)*; Aib = CC(C)(N)C(=O)O
What was measured:
[1] = system: Mycobacterium tuberculosis; assay: Antimycobacterial activity against Mycobacterium bovis BCG under aerobic condition; assay type: functional; conditions: variant bovis BCG
[2] = system: Mycobacterium tuberculosis; assay: Antimycobacterial activity against Mycobacterium bovis BCG under dormancy-inducing hypoxic condition; assay type: functional; conditions: variant bovis BCG

SMILES | MIC [1] [mg/L] | MIC [2] [mg/L]
CCCCCCCC[C@@H](C)C(=O)N1CCC[C@H]1C(=O)N[C@@H](C[C@H](C)C/C=C/C(=O)CC)C(=O)NC(C)(C)C(=O)NC(C)(C)C(=O)N[C@H](C(=O)N[C@H](C(=O)NC(C)(C)C(=O)NC(C)(C)C(=O)N[C@@H](C)CN(C)CCO)C(C)C)[C@@H](C)CC [TRICHODERIN A1] ({Decanoyl(2R-Me)}-P[X1][Aib][Aib]IV[Aib][Aib]-{Alaψ(CH2NMeCH2CH2OH)}) | 0.16 (≈ 0.14 µM) | 0.16 (≈ 0.14 µM)
NNC(=O)c1ccncc1 [ISONIAZID] | 0.03 (≈ 0.219 µM) | > 100
CCCCCCCC[C@@H](C)C(=O)N1CCC[C@H]1C(=O)N[C@@H](C[C@H](C)C[C@H](O)CC(=O)CC)C(=O)NC(C)(C)C(=O)NC(C)(C)C(=O)N[C@H](C(=O)N[C@H](C(=O)NC(C)(C)C(=O)NC(C)(C)C(=O)N[C@@H](C)CN(C)CCO)C(C)C)C(C)C [TRICHODERIN B] ({Decanoyl(2R-Me)}-P[X2][Aib][Aib]VV[Aib][Aib]-{Alaψ(CH2NMeCH2CH2OH)}) | 0.02 (≈ 0.0174 µM) | 0.02 (≈ 0.0174 µM)
CCCCCCCC[C@@H](C)C(=O)N1CCC[C@H]1C(=O)N[C@@H](C[C@H](C)C[C@H](O)CC(=O)CC)C(=O)NC(C)(C)C(=O)NC(C)(C)C(=O)N[C@H](C(=O)N[C@H](C(=O)NC(C)(C)C(=O)NC(C)(C)C(=O)N[C@@H](C)CN(C)CCO)C(C)C)[C@@H](C)CC [TRICHODERIN A] ({Decanoyl(2R-Me)}-P[X2][Aib][Aib]IV[Aib][Aib]-{Alaψ(CH2NMeCH2CH2OH)}) | 0.02 (≈ 0.0172 µM) | 0.02 (≈ 0.0172 µM)

From ChEMBL document CHEMBL1158611, “Trichoderins, novel aminolipopeptides from a marine sponge-derived Trichoderma sp., are active against dormant mycobacteria” (2010)
